Four molecules from BindingDB's records for doi:10.1080/14756360600991017 (University of Athens, 2007) can be followed below.

Broadly, the pIC50 is the IC50 on a negative log10 scale, so that one unit is a factor of ten.

SMILES strings stand for the structures. pIC50: −log10 of the molar value.

For the assay, the target named is T1, Seed linoleate 13S-lipoxygenase-1 (Glycine max, UniProt P08170).
T1 sequence (P08170 whole entry): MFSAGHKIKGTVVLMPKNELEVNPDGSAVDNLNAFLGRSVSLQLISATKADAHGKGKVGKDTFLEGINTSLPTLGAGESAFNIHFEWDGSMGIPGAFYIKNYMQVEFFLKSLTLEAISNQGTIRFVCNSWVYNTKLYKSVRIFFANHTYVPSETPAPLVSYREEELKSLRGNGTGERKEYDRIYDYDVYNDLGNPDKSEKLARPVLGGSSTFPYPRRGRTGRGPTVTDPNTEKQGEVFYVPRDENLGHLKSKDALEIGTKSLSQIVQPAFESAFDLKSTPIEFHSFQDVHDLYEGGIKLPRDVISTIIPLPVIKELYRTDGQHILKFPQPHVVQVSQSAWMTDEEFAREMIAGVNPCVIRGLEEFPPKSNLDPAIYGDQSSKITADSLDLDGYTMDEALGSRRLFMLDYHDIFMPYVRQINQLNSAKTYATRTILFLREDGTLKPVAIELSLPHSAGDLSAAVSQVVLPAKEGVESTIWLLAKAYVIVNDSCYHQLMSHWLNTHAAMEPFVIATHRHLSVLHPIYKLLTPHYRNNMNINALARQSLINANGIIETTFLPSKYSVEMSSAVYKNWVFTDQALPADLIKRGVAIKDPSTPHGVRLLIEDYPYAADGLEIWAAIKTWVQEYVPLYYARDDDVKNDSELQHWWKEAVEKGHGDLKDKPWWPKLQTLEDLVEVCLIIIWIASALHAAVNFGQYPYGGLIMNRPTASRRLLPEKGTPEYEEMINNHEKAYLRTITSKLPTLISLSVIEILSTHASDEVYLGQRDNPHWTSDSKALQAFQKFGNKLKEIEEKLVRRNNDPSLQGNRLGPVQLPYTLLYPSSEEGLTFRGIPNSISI
Description: Inhibition Assay. The following applies: 25 °C.
Description: soybean lipoxygenase and linoleic acid sodium salt were obtained from Sigma Chemical, Co. in St. Louis, MO. Each experiment of the in vitro assay was performed at least in triplicate and the standard deviation of absorbance was less than 10% of the mean.
Consider `O=C(/C=C/c1ccc(O)c(O)c1)O[C@H](Cc1ccc(O)c(O)c1)C(=O)O` [Rosmarinic acid, 2], for which the pIC50 is 2.94.
`CC(C)C1=C[C@H](O)[C@@](C)(O[C@@H]2OC(CO)[C@@H](O)[C@H](O)C2O)CC1` (some centres undefined) [p-menth-3-ene-1,2-diol 1-O-B-glucopyranoside, 5] showed a negative-log IC50 (pIC50) of 3.44.
In turn, `O=C(O)C[C@H]1CCC(=O)[C@@H]1C/C=C/CCO[C@H]1OC(CO)[C@H](O)C(O)[C@H]1O` (some centres undefined) [12-hydroxy-jasmonic acid 12-O-B-glucoside, 4] had a pIC50 of 3.25.
`O=C(/C=C/c1ccc(O)c2c1C(C(=O)O[C@@H](Cc1ccc(O)c(O)c1)C(=O)O)[C@@H](c1ccc(O)c(O)c1)O2)O[C@H](Cc1ccc(O)c(O)c1)C(=O)O` (some centres undefined) [Lithospermic acid, 3] had a pIC50 of 3.00.
